Source: patent US11154060B2, “Microbiocidal oxadiazole derivatives” (SYNGENTA PARTICIPATIONS AG, priority 2016, dated 2021)

Key:
Uromyces viciae-fabae = Uromyces viciae-fabae / field bean / leaf disc preventative (faba-bean rust); format: in vivo; conditions: foliar, 288 h, 100 ppm in the applied formulation, field bean leaf discs, inoculated two hours after application, 12 days after application, read-out: disease control compared to untreated control leaf discs
Procedure: Leaf disks or leaf segments of various plant species are cut from plants grown in a greenhouse. The cut leaf disks or segments are placed in multiwell plates (24-well format) onto water agar. The leaf disks are sprayed with a test solution before (preventative) or after (curative) inoculation. Compounds to be tested are prepared as DMSO solutions (max. 10 mg/ml) which are diluted to the appropriate concentration with 0.025% Tween20 just before spraying. The inoculated leaf disks or segments are incubated under defined conditions (temperature, relative humidity, light, etc.) according to the respective test system. A single evaluation of disease level is carried out 3 to 14 days after inoculation, depending on the pathosystem. Percent disease control relative to the untreated check leaf disks or segments is then calculated. Field bean leaf discs are placed on water agar in multiwell plates (96-well format) and 10 μl of the formulated test compound diluted in acetone and a spreader pipetted onto the leaf disc. Two hours after application leaf discs are inoculated by spraying a spore suspension on the lower leaf surface. The leaf discs are incubated in a climate cabinet at 22° C. with 18 hour day and 70% relative humidity. The activity of a compound is assessed as percent disease control compared to untreated when an appropriate level of disease damage appears in untreated check leaf disks (12 days after application).

[1] = system: Puccinia recondita f. sp. tritici; assay: Puccinia recondita f. sp. tritici / wheat / leaf disc preventative (brown rust); format: in vivo; conditions: foliar, wheat leaf segments cv. Kanzler, inoculated 1 day after application, assessed 7-9 days after application, read-out: control of Puccinia recondita f. sp. tritici compared to untreated control
Method in brief: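 Wheat leaf segments (cv. Kanzler) on water agar sprayed with compound diluted from DMSO stock in water/0.025% Tween20, then inoculated with P. recondita spores 1 day later. Incubated at 19 °C, 75% rh, 12 h light/dark. Percent disease control versus untreated assessed 7-9 days after application.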

Phakopsora pachyrhizi = Phakopsora pachyrhizi / soybean / leaf disc preventative (Asian soybean rust); format: in vivo; conditions: foliar, soybean leaf disks, inoculated one day after application, assessed 12-14 days after application, read-out: control of Phakopsora pachyrhizi compared to untreated control
Method in brief: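 Soybean leaf discs on water agar sprayed with formulated compound diluted in water; spore suspension sprayed on lower surface 1 day later. Kept 24-36 h dark at 20° C, 75% rh, then 12 h light/12 h dark. Percent disease control versus untreated scored 12-14 days after application.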

[2] = system: Puccinia recondita f. sp. tritici; assay: Puccinia recondita f. sp. tritici / wheat / leaf disc curative (brown rust); format: in vivo; conditions: foliar, wheat leaf segments cv. Kanzler, applied 1 day after inoculation, assessed 6-8 days after application, read-out: control of Puccinia recondita f. sp. tritici compared to untreated control
Method in brief: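 Wheat cv. Kanzler leaf segments on agar, inoculated with brown rust spores and kept dark at 19 °C, 75% rh; formulated compound sprayed 1 day after inoculation (curative). Incubated 19 °C, 75% rh, 12 h light/dark; percent disease control vs untreated scored 6–8 days after application.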

[3] = system: Glomerella lagenarium (Colletotrichum lagenarium); assay: Glomerella lagenarium (Colletotrichum lagenarium) liquid culture / cucumber / preventative (anthracnose); format: cell-based; conditions: Colletotrichum orbiculare, liquid culture in PDB, 24° C., 3-4 days after application, read-out: control of Glomerella lagenarium compared to untreated control (inhibition of growth, photometric)
Method in brief: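 Conidia from cryogenic storage mixed into potato dextrose broth and added to compound diluted from DMSO stock with 0.025% Tween20. Incubated at 24 °C; growth inhibition read photometrically 3–4 days after application, as percent antifungal activity versus untreated check.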

Row | melting point [°C] | Compound | pest or weed control at 100 ppm (Uromyces viciae-fabae) [%] | pest or weed control at 200 ppm [1] [%] | pest or weed control at 200 ppm (Phakopsora pachyrhizi) [%] | pest or weed control at 200 ppm [2] [%] | inhibition at 20 ppm [3] [%]
1 | 122 to 125 | CONC(=O)c1ccc(-c2noc(C(F)(F)F)n2)cc1F [Compound 1.1, 2-fluoro-N-methoxy-4-[5-(trifluoromethyl)-1,2,4-oxadiazol-3-yl]benzamide] | ≥ 80 | ≥ 80 | ≥ 80 | ≥ 80 | ≥ 80
2 | 104 to 106 | CON(C)C(=O)Cc1ccc(-c2noc(C(F)(F)F)n2)cc1F [Compound 1.19, 2-[2-fluoro-4-[5-(trifluoromethyl)-1,2,4-oxadiazol-3-yl]phenyl]-N-methoxy-N-methyl-acetamide] | – | ≥ 80 | ≥ 80 | ≥ 80 | ≥ 80
3 | 83.5 to 86.2 | CON(C(=O)c1ccc(-c2noc(C(F)(F)F)n2)cc1F)C(C)Cc1c(Cl)cc(Cl)cc1Cl (stereo not drawn) [Compound 1.4, 2-fluoro-N-methoxy-N-[1-methyl-2-(2,4,6-trichlorophenyl)ethyl]-4-[5-(trifluoromethyl)-1,2,4-oxadiazol-3-yl]benzamide] | ≥ 80 | – | – | – | –
4 | 120 to 121 | O=C(c1ccc(-c2noc(C(F)(F)F)n2)cc1)N1OC2CCC1CC2 [Compound 2.24, 2-oxa-3-azabicyclo[2.2.2]octan-3-yl-[4-[5-(trifluoromethyl)-1,2,4-oxadiazol-3-yl]phenyl]methanone] | ≥ 80 | – | ≥ 80 | ≥ 80 | ≥ 80
5 | 89 | O=C(c1ccc(-c2noc(C(F)(F)F)n2)cc1)N1OC2C=CC1CC2 (stereo not drawn) [Compound 2.23, 2-oxa-3-azabicyclo[2.2.2]oct-5-en-3-yl-[4-[5-(trifluoromethyl)-1,2,4-oxadiazol-3-yl]phenyl]methanone] | ≥ 80 | ≥ 80 | ≥ 80 | ≥ 80 | ≥ 80
6 | 171 to 183 | CCONC(=O)Cc1ccc(-c2noc(C(F)(F)F)n2)cc1 [Compound 2.16, N-ethoxy-2-[4-[5-(trifluoromethyl)-1,2,4-oxadiazol-3-yl]phenyl]acetamide] | – | ≥ 80 | ≥ 80 | ≥ 80 | ≥ 80

Further lines, the molecule ahead of its results:

Row | Compound | melting point [°C] | pest or weed control at 100 ppm (Uromyces viciae-fabae) [%] | pest or weed control at 200 ppm [1] [%] | pest or weed control at 200 ppm (Phakopsora pachyrhizi) [%] | pest or weed control at 200 ppm [2] [%] | inhibition at 20 ppm [3] [%]
7 | C#CCONC(=O)c1ccc(-c2noc(C(F)(F)F)n2)cc1 [Compound 2.11, N-prop-2-ynoxy-4-[5-(trifluoromethyl)-1,2,4-oxadiazol-3-yl]benzamide] | 167 to 169 | ≥ 80 | ≥ 80 | ≥ 80 | ≥ 80 | ≥ 80
8 | C=CCONC(=O)c1ccc(-c2noc(C(F)(F)F)n2)cc1 [Compound 2.12, N-allyloxy-4-[5-(trifluoromethyl)-1,2,4-oxadiazol-3-yl]benzamide] | 134 to 135 | ≥ 80 | ≥ 80 | ≥ 80 | ≥ 80 | ≥ 80
9 | O=C(c1ccc(-c2noc(C(F)(F)F)n2)cc1F)N1CCCCO1 [Compound 1.27, [2-fluoro-4-[5-(trifluoromethyl)-1,2,4-oxadiazol-3-yl]phenyl]-(oxazinan-2-yl)methanone] | 57.3 to 59.4 | ≥ 80 | ≥ 80 | ≥ 80 | ≥ 80 | ≥ 80
10 | O=C(Cc1ccc(-c2noc(C(F)(F)F)n2)cc1)NOCC(F)F [Compound 2.17, N-(2,2-difluoroethoxy)-2-[4-[5-(trifluoromethyl)-1,2,4-oxadiazol-3-yl]phenyl]acetamide] | 140 to 146 | – | ≥ 80 | ≥ 80 | ≥ 80 | ≥ 80
11 | CC(CC#N)ONC(=O)c1ccc(-c2noc(C(F)(F)F)n2)cc1F (stereo not drawn) [Compound 1.11, N-(2-cyano-1-methyl-ethoxy)-2-fluoro-4-[5-(trifluoromethyl)-1,2,4-oxadiazol-3-yl]benzamide] | 85.8 to 88 | ≥ 80 | ≥ 80 | ≥ 80 | ≥ 80 | ≥ 80
12 | O=C(c1ccc(-c2noc(C(F)(F)F)n2)cc1F)N1CCCO1 [Compound 1.26, [2-fluoro-4-[5-(trifluoromethyl)-1,2,4-oxadiazol-3-yl]phenyl]-isoxazolidin-2-yl-methanone] | 60.3 to 62.4 | ≥ 80 | ≥ 80 | – | ≥ 80 | ≥ 80
